Blank lines part the entries; values can stand above or below the compound they belong to.
Experiments:
MCF-7 cells [1] = assay: Clonogenic survival assay; format: cell-based, Human
Method: (§1) Human cancer cell lines derived from breast, MCF-7, endocrine-resistant MDA-MB-231, and chemoresistant MCF-7TN-R were cultured in 75 cm^2 culture flasks in DMEM (Invitrogen, Co.) supplemented with 10% FBS (Life Technologies, Inc., Gaithersburg, Md.), basic minimum MEM essential (50×, Invitrogen Co.) and MEM non-essential (100×, Invitrogen, Co.) amino acids, sodium pyruvate (100× Invitrogen Co.), antimicotic-antibiotic (10,000 U/mL penicillin G sodium; 10,000 μg/mL streptomycin sulphate; 25 μg/mL amphotericin B as Fungizone®), and human recombinant insulin (4 mg/mL Invitrogen Co). Culture flasks were maintained in a tissue culture incubator in a humidified atmosphere of 5% CO2 and 95% air at 37° C.
(§2) MCF-7, MDA-MB-231, or MCF-7TN-R cells were plated in 6-well plates at 1000 cells per well. Twenty-four hours later, cells were treated with varying concentrations of the compound and then monitored microscopically for colony growth. Ten days later the cells were fixed with 3% glutaraldehyde. Following fixation for 15 min, the plates were washed and stained with a 0.4% solution of crystal violet in 20% methanol for 30 min, washed with PBS, and air-dried. Colonies of 30 cells were counted as positive. Results are normalized to percent clonogenic survival from untreated control cells. Statistical analysis of IC50 values were calculated from concentration-response curves using GraphPad Prism 5.0 (Graphpad Software, San Diego, Calif.), using with the equation: Y=Bottom+(Top−bottom)/1+10 Log EC50−X.
(§3) Compounds II-1, II-2, II-3, II-4, II-5, and II-6 were compared for their inhibitory effect on breast cancer clonogenic survival. Cells were treated with varying concentration of compound, ranging from 0.1 μM-20 μM for 10 days. […] At endpoint, cell colonies were fixed, stained and recorded as percent vehicle control.

MDA-MB-231 cells [2] = assay: Clonogenic survival assay; format: cell-based, Human; settings: Homo sapiens, MDA-MB-231, 240 h
Method: as §1, §2, §3

MCF-7TN-R cells [3] = assay: Clonogenic survival assay; format: cell-based, Human; settings: Homo sapiens, 240 h
Method: as §1, §2, §3

MCF-7 cells [4] = assay: Viability assay using MTT; format: cell-based; settings: Homo sapiens, MCF7, 24 h, compounds 0.1 to 100 μM, unit inferred, read-out: MCF-7 (IC50), Viability Assays
Method: as §1
(§4) The effect of ceramide and compounds on cell growth was determined using MTT viability assays. MCF-7, MDA-MB-231, or MCF-7TN-R cells were plated at […] cells per well in a 96-well plate in phenol-free DMEM supplemented with 5% FBS and allowed to adhere overnight. Cells were then treated with compounds I-1, I-2, I-3, or I-4 (ranging from 0.1 to 100 μM) for 24 h. Following that treatment, 20 μL of MTT (5 mg/ml) reagent was added to each well prior to incubation for 4 hr. Cells were then lysed with 20% SDS in 50% dimethylformamide. The pH and absorbances were read on an EL×808 Microtek plate reader (Winooski, Vt.) at 550 nm, with a reference wavelength of 630 nm.
(§5) Statistical analysis of IC50 values were calculated from concentration-response curves using GraphPad Prism 5.0 (Graphpad Software, San Diego, Calif.), using with the equation: Y=Bottom+(Top−bottom)/1+10 Log EC50−X assuming a standard slope, where the response goes from 10% to 90% of maximal as X increases over two log units. Differences in IC50 were compared using Student's unpaired t-test with p<0.05 as the limit of statistical significance. Experiments comparing multiple concentrations to the control were tested with one-way ANOVA with Bonferroni post-test to compare individual concentrations. All statistical analysis were done using GraphPad Prism 5.0. […].

MDA-MB-231 cells [5] = assay: Viability assay using MTT; format: cell-based; settings: Homo sapiens, 24 h, compounds 0.1 to 100 μM, unit inferred, read-out: MDA-MB-231 (IC50), Viability Assays
Method: as §1, §4, §5

MCF-7TN-R cells [6] = assay: Viability assay using MTT; format: cell-based; settings: Homo sapiens, 24 h, compounds 0.1 to 100 μM, unit inferred, read-out: MCF-7TN-R (IC50), Viability Assays
Method: as §1, §4, §5

MCF-7TN-R cells [7] = assay: Proliferation assay; format: cell-based; settings: Homo sapiens; Table 3; read-out: IC50 (μM), anti-proliferative in MCF-7TN-R cells
Method: The ability of compound II-3 to block proliferation as an anti-survival mechanism in addition to apoptosis was determined by measuring anti-proliferative effects.
Nineteen compounds were synthesized using fifteen benzaldehydes as starting material. […] These were tested as potential anti-proliferative agents in MCF-7TN-R cells, and the structure-activity relationships were studied using several parameters. […] In compounds containing a methyl group, a significant increase of the PAC (C) in o-substituted compound was detected, which may account for the increased anti-proliferation activity. Ortho-substituted analogs with electron withdrawing groups by induction can have beneficial effects, and PAC (C) can be a useful predictor of the structural property of the molecule.

[8] = Log K (structure-activity parameter); format: physicochemical
[9] = Homo sapiens, MCF7, 240 h, Table 1B, 10 days, read-out: MCF-7 (IC50), Clonogenic Survival Assays
[10] = Table 1B, 10 days, read-out: MDA-MB-231 (IC50), Clonogenic Survival Assays
[11] = Table 1B, 10 days, read-out: MCF-7TN-R (IC50), Clonogenic Survival Assays
[12] = Homo sapiens, MCF7, 240 h, Table 2, 0.1 μM-20 μM for 10 days, read-out: MCF-7 (IC50), clonogenic survival
[13] = Table 2, 0.1 μM-20 μM for 10 days, read-out: MDA-MB-231 (IC50), clonogenic survival
[14] = Table 2, 0.1 μM-20 μM for 10 days, read-out: MCF-7-TNR (IC50), clonogenic survival

SMILES: CCCCCCCCCCCCC/C=C/[C@@H](O)[C@H](CO)NC(=O)C1CCCCC1 [Compound I-1, N-((2S,3R,E)-1,3-dihydroxyoctadec-4-en-2-yl)cyclohexanecarboxamide]
IC50 (MCF-7 cells [1]; [9]): 1.5 µM
IC50 (MDA-MB-231 cells [2]; [10]): 1.6 µM
IC50 (MCF-7TN-R cells [3]; [11]): 0.7 µM
IC50 (MCF-7 cells [4]): 22.6 µM
IC50 (MDA-MB-231 cells [5]): 5.4 µM
IC50 (MCF-7TN-R cells [6]): 2.4 µM

SMILES: CCCCCCCCCCCCC/C=C/[C@@H](O)[C@H](CO)NCc1ccccc1 [Compound I-2, (2S,3R,E)-2-(benzylamino)octadec-4-ene-1,3-diol]
IC50 (MCF-7 cells [1]; [9]): 1.5 µM
IC50 (MDA-MB-231 cells [2]; [10]): 1.1 µM
IC50 (MCF-7TN-R cells [3]; [11]): 0.6 µM
IC50 (MCF-7 cells [4]): 6.3 µM
IC50 (MDA-MB-231 cells [5]): 3.7 µM
IC50 (MCF-7TN-R cells [6]): 3 µM

SMILES: CCCCCCCCCCCCC/C=C/[C@@H](O)[C@H](CO)/N=C/c1ccccc1 [Compound I-3, (2S,3R,E)-2-((E)-benzylideneamino)octadec-4-ene-1,3-diol]
IC50 (MCF-7 cells [1]; [9]): 1.7 µM
IC50 (MDA-MB-231 cells [2]; [10]): 1.4 µM
IC50 (MCF-7TN-R cells [3]; [11]): 0.1 µM
IC50 (MCF-7 cells [4]): 9 µM
IC50 (MDA-MB-231 cells [5]): 4.8 µM
IC50 (MCF-7TN-R cells [6]): 3.6 µM

SMILES: CCCCCCCCCCCCC/C=C/[C@@H](O)[C@H](CO)NC(=O)C(C)(C)C [Compound I-4, N-((2S,3R,E)-1,3-dihydroxyoctadec-4-en-2-yl)pivalamide]
IC50 (MCF-7 cells [1]; [9]): 1.5 µM
IC50 (MDA-MB-231 cells [2]; [10]): 0.5 µM
IC50 (MCF-7TN-R cells [3]; [11]): 0.6 µM
IC50 (MCF-7 cells [4]): 13.5 µM
IC50 (MDA-MB-231 cells [5]): 8 µM
IC50 (MCF-7TN-R cells [6]): 4.2 µM

SMILES: CCCCCCCCCCCCCCNC(=O)[C@H](CO)NC(=O)C1CCCCC1 [II-1, (S)—N-(3-hydroxy-1-oxo-1-(tetradecylamino)propan-2-yl)cyclohexanecarboxamide]
IC50 (MCF-7 cells [1]; [12]): 7.2 µM
IC50 (MDA-MB-231 cells [2]; [13]): 11.5 µM
IC50 (MCF-7TN-R cells [3]; [14]): 23.5 µM

SMILES: CCCCCCCCCCCCCCNC(=O)[C@H](CO)NCc1ccccc1 [II-2, (S)-2-(benzylamino)-3-hydroxy-N-tetradecylpropanamide]
IC50 (MCF-7 cells [1]; [12]): 4.97 µM
IC50 (MCF-7 cells [1]; Table 2, 0.1 μM-20 μM for 10 days, read-out: MCF-7 (IC50), clonogenic survival): 5 µM
IC50 (MDA-MB-231 cells [2]; [13]): 10.5 µM
IC50 (MCF-7TN-R cells [3]; [14]): 15.2 µM

SMILES: CCCCCCCCCCCCCCNC(=O)[C@H](CO)NC(=O)C(C)(C)C [II-4, (S)-3-hydroxy-2-pivalamido-N-tetradecylpropanamide]
IC50 (MCF-7 cells [1]; [12]): 6.7 µM
IC50 (MDA-MB-231 cells [2]; [13]): 6.1 µM
IC50 (MCF-7TN-R cells [3]; [14]): 11.1 µM

SMILES: CCCCCCCCCCCCCCNC(=O)[C@H](CO)NC(=O)c1cc(OC)cc(OC)c1 [II-5, (S)—N-(3-hydroxy-1-oxo-1-(tetradecylamino)propan-2-yl)-3,5-dimethoxybenzamide]
IC50 (MCF-7 cells [1]; [12]): 11.2 µM
IC50 (MDA-MB-231 cells [2]; [13]): 6.6 µM
IC50 (MCF-7TN-R cells [3]; [14]): 15 µM

SMILES: CCCCCCCCCCCCCCNC(=O)[C@H](CO)NC(C)=O [II-6, (S)-2-acetamido-3-hydroxy-N-tetradecylpropanamide]
IC50 (MCF-7 cells [1]; [12]): 44.7 µM
IC50 (MDA-MB-231 cells [2]; [13]): 75.1 µM
IC50 (MCF-7TN-R cells [3]; [14]): 52.7 µM

SMILES: CCCCCCCCCCCCCCNC(=O)[C@H](CO)N=Cc1ccc([N+](=O)[O-])cc1 [II-7, (S)-2-(4-nitrobenzylideneamino)-3-hydroxy-N-tetradecylpropanamide]
IC50 (MCF-7TN-R cells [7]): 216 µM
Log K [8]: 0.86

SMILES: CCCCCCCCCCCCCCNC(=O)[C@H](CO)N=Cc1ccccc1[N+](=O)[O-] [II-9, (S)-2-(2-nitrobenzylideneamino)-3-hydroxy-N-tetradecylpropanamide]
IC50 (MCF-7TN-R cells [7]): 21.7 µM
Log K [8]: 0.88

SMILES: CCCCCCCCCCCCCCNC(=O)[C@H](CO)N=Cc1ccccc1C [II-12, (S)-2-(2-methylbenzylideneamino)-3-hydroxy-N-tetradecylpropanamide]
IC50 (MCF-7TN-R cells [7]): 87.7 µM
Log K [8]: 1.09

SMILES: CCCCCCCCCCCCCCNC(=O)[C@H](CO)N=Cc1ccc(Cl)cc1 [II-13, (S)-2-(4-chlorobenzylideneamino)-3-hydroxy-N-tetradecylpropanamide]
IC50 (MCF-7TN-R cells [7]): 27.5 µM
Log K [8]: 1.09

SMILES: CCCCCCCCCCCCCCNC(=O)[C@H](CO)N=Cc1ccccc1Cl [II-15, (S)-2-(2-chlorobenzylideneamino)-3-hydroxy-N-tetradecylpropanamide]
IC50 (MCF-7TN-R cells [7]): 10.3 µM
Log K [8]: 1.12

SMILES: CCCCCCCCCCCCCCNC(=O)[C@H](CO)N=Cc1ccc(O)cc1 [II-19, (S)-2-(4-hydroxybenzylideneamino)-3-hydroxy-N-tetradecylpropanamide]
IC50 (MCF-7TN-R cells [7]): 19.3 µM
Log K [8]: 0.73

SMILES: CCCCCCCCCCCCCCNC(=O)[C@H](CO)N=Cc1ccccc1O [II-21, (S)-2-(2-hydroxybenzylideneamino)-3-hydroxy-N-tetradecylpropanamide]
IC50 (MCF-7TN-R cells [7]): 19 µM
Log K [8]: 0.89

The next lines start with the values.

IC50 (MCF-7TN-R cells [7]): 104 µM
Log K [8]: 0.86
SMILES: CCCCCCCCCCCCCCNC(=O)[C@H](CO)N=Cc1cccc([N+](=O)[O-])c1 [II-8, (S)-2-(3-nitrobenzylideneamino)-3-hydroxy-N-tetradecylpropanamide]

IC50 (MCF-7TN-R cells [7]): 102 µM
Log K [8]: 1.09
SMILES: CCCCCCCCCCCCCCNC(=O)[C@H](CO)N=Cc1ccc(C)cc1 [II-10, (S)-2-(4-methylbenzylideneamino)-3-hydroxy-N-tetradecylpropanamide]

IC50 (MCF-7TN-R cells [7]): 82.9 µM
Log K [8]: 1.09
SMILES: CCCCCCCCCCCCCCNC(=O)[C@H](CO)N=Cc1cccc(C)c1 [II-11, (S)-2-(3-methylbenzylideneamino)-3-hydroxy-N-tetradecylpropanamide]

IC50 (MCF-7TN-R cells [7]): 24.1 µM
Log K [8]: 1.08
SMILES: CCCCCCCCCCCCCCNC(=O)[C@H](CO)N=Cc1cccc(Cl)c1 [II-14, (S)-2-(3-chlorobenzylideneamino)-3-hydroxy-N-tetradecylpropanamide]

IC50 (MCF-7TN-R cells [7]): 28.1 µM
Log K [8]: 0.91
SMILES: CCCCCCCCCCCCCCNC(=O)[C@H](CO)N=Cc1ccc(OC)cc1 [II-16, (S)-2-(4-methoxybenzylideneamino)-3-hydroxy-N-tetradecylpropanamide]

IC50 (MCF-7TN-R cells [7]): 31.2 µM
Log K [8]: 0.92
SMILES: CCCCCCCCCCCCCCNC(=O)[C@H](CO)N=Cc1cccc(OC)c1 [II-17, (S)-2-(3-methoxybenzylideneamino)-3-hydroxy-N-tetradecylpropanamide]

IC50 (MCF-7TN-R cells [7]): 12.5 µM
Log K [8]: 0.89
SMILES: CCCCCCCCCCCCCCNC(=O)[C@H](CO)N=Cc1ccccc1OC [II-18, (S)-2-(2-methoxybenzylideneamino)-3-hydroxy-N-tetradecylpropanamide]

IC50 (MCF-7TN-R cells [7]): 32.6 µM
Log K [8]: 0.76
SMILES: CCCCCCCCCCCCCCNC(=O)[C@H](CO)N=Cc1cccc(O)c1 [II-20, (S)-2-(3-hydroxybenzylideneamino)-3-hydroxy-N-tetradecylpropanamide]
